{"source": "patent US9394544B2", "about": "“Ameliorating oxidative stress in neurodegenerative disease via Nox1 targeting” (University of Central Florida Research Foundation, Inc., priority 2013, dated 2016)", "tested_on": "rat SN", "experiment": "Western blot / dot blot / protein carbonyl immunoblot of SN lysates, PQ rat model", "type": "in vivo", "protocol": "The experiments were performed on rats, in accordance with the National Institutes for Health Guide for the Care and Use of Laboratory Animals. All procedures were approved by the local Animal Care and Use Committee. Male Wistar rats (8-10 weeks; Charles River) were maintained in a temperature/humidity-controlled environment under a 12 h light/dark cycle with ad libitum access to food and water. As depicted in FIG. 13A, each animal received four intraperitoneal injections, separated by 1 d, of either vehicle (saline) or PQ (10 mg/kg body weight; b.w.), according to a previously published dose (Manning-Bog et al., 2002; Harraz et al., 2008; Cristovao et al., 2009). All animals were weighed at day 1 and 12. In the studies using the paradigm depicted in FIG. 13A, 4 weeks before starting PQ intraperitoneal injection, animals were stereotaxically injected with various viral constructs at the right SN using the following coordinates: mediolateral, +2.0; anteroposterior, −5.3; dorsoventral, −6.8. Animals were organized into four groups: vector+vehicle: stereotaxically injected with adeno-associated virus (AAV) particles containing a green fluorescent protein (GFP) vector (vector) and then intraperitoneally injected with saline (vehicle) (n=10); vector+PQ: stereotaxically injected with vector and then intraperitoneally injected with PQ (n=10); shNox1+PQ: stereotaxically injected with AAV particles harboring Nox1 shRNA and then intraperitoneally injected with PQ (n=10); shNox1+vehicle: stereotaxically injected with Nox1 shRNA and then intraperitoneally injected with vehicle (n=8). AAV containing GFP vector was used as a negative control. Five days after the last PQ intraperitoneal injection, animals were killed. For Western blot analysis, brains were collected and total protein lysates from SN were prepared. For immunohistochemical analysis, animals were intracardially perfused before collecting the brains.\nFor Western blot, brain tissues were lysed on ice in radioimmunoprecipitation assay buffer containing 50 mMTris/HCl, pH 8.0, 150 mM NaCl, 2 mM sodium orthovanadate, 1% Nonidet-P40 (NP-40), 0.5% sodium deoxycholate, and 0.1% SDS, containing 1% of a protease inhibitor mixture (AEBSF, pepstatinA, E-64, bestatin, leupeptin, and aprotinin). The soluble fraction was obtained and equal amounts of cell lysate protein were loaded in each lane of a 12% SDS-PAGE or 4/10% to 20% polyacrylamide gel. After electrophoresis and transfer onto a polyvinylidene difluoride (PVDF) membrane, specific protein bands were detected using appropriate primary antibodies (rabbit anti-Nox1, rabbit anti-α-synuclein, mouse anti-Ubiquitin, mouse anti-tyrosine hydroxylase (TH), and mouse anti-β-actin) and secondary antibodies conjugated to alkaline phosphatase or […] peroxidase (anti-rabbit or anti-mouse) followed by Enhanced Chemifluorescence (ECF) detection or Enhanced Chemiluminescence (ECL).\nFor dot blot, brain tissues were homogenized in a buffer containing 0.32 M sucrose, 1 mM NaHCO3, 1 mM MgCl2, 0.5 mM CaCl2, and 1% of a protease inhibitor mixture (AEBSF, pepstatinA, E-64, bestatin, leupeptin, and aprotinin). The soluble fraction was obtained by centrifugation at 1000×g and 5 μl of each sample, containing the same amount of protein, was spotted in a PVDF membrane. Membrane was air dried for 4 h and blocked overnight at 4° C. in 5% nonfat dry milk TBST (10 mM Tris-HCl, pH 7.8, 100 mM NaCl, 0.05% Tween 20) solution. Protein spots were detected using the primary antibody, rabbit anti-A11 oligomer (0.5 μg/ml) from Invitrogen, and secondary antibody conjugated to […] peroxidase (anti-rabbit) followed by ECL detection.\nThe levels of protein carbonyl were measured in protein extracts from the SN tissues, using the OxiSelect Protein Carbonyl Immunoblot Kit (Cell Biolabs), according to the manufacturer's instructions, with small modifications. […]"}
{"smiles": "C[n+]1ccc(-c2cc[n+](C)cc2)cc1", "note": "[PQ, paraquat]", "values": [{"measurement": "increase in protein carbonyl levels after PQ exposure", "setting": "ipsilateral SN", "value": 95, "unit": "%"}, {"measurement": "increase in ubiquitin protein levels, vector+PQ vs vector+vehicle", "setting": "ipsilateral SN", "value": 43, "unit": "%"}, {"measurement": "increase in α-synuclein protein levels, vector+PQ vs vector+vehicle", "setting": "ipsilateral SN, Western blot", "value": 54, "unit": "%"}, {"measurement": "increase in A11-positive oligomers, vector+PQ vs vector+vehicle", "setting": "ipsilateral SN, dot blot", "value": 68, "unit": "%"}, {"measurement": "TH protein levels compared with vector+vehicle", "setting": "ipsilateral SN, vector+PQ group, or Nox1 knocked down before PQ", "value": 65, "unit": "%"}, {"measurement": "Nox1 protein level in the SN, higher than vehicle group", "setting": "rats, PQ 10 mg/kg i.p. x4", "value": 58, "unit": "%"}, {"measurement": "increase in α-synuclein protein levels in the SN (Western blot)", "setting": "rats, PQ 10 mg/kg i.p. x4, vs vehicle", "value": 50, "unit": "%"}, {"measurement": "Nox1 protein, higher than vector+vehicle", "setting": "vector+PQ group, ipsilateral SN", "value": 70, "unit": "%"}]}
